Where a name gives a salt, the structure may show the parent alone.
Target: T1, c-Met (Homo sapiens, UniProt P08581)
T1 construct: c-Met cytoplasmic domain (amino acids 969 to C-terminus); made in house; host or cells: baculovirus / Sf9 cells
T1 sequence (P08581 969-1390 limits assumed): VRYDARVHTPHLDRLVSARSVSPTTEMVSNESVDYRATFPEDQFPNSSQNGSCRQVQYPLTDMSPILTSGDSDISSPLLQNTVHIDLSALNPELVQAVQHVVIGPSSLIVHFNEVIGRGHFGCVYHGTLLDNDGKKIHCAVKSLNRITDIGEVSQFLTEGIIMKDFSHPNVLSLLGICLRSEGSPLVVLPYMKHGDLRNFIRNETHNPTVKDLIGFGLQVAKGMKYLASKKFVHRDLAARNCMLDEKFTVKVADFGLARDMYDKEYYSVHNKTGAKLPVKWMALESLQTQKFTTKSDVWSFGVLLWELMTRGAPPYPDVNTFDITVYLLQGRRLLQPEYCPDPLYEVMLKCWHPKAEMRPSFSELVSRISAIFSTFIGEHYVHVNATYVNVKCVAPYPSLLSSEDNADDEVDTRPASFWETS
Assay: Inhibition of c-Met kinase (33P-ATP filter assay)
Type: biochemical
Details: GST-c-Met cytoplasmic domain, poly(EY) substrate; read-out: IC50 range class, inhibition of c-Met
Text: Compounds of the formula I, for example, are able to inhibit c-Met kinase as mentioned already in the introduction. Using the sequence disclosed by Chan et al. (see Chan, A M-L, King H W S, Tempest P R, Deakin E A, Cooper C S, Brookes P. Primary structure of the met protein tyrosine kinase domain. Oncogene 1987; 12:229-233), a construct with this sequence, after hooking to a GST tag, was cloned into baculovirus and expressed in Sf9 cells. After partial purification by affinity chromatography on GST agarose resulting in a >90% pure preparation (SDS-PAGE), the kinase activity of this construct is used for inhibition assays using the compounds of formula I. The quality of the purified kinase preparations is highly reproducible: 9 batches of c-Met gives an average specific activity of 32.3±5.7 nmol/mg·min.
For inhibition studies, the following experimental protocol is used:
In vitro protein kinase assays are performed in 96-well plates. The amount of enzyme used in kinase assays and the incubation time for the kinase reaction are adjusted so that maximally 25% (in routine experiments <10%) of the substrate ATP are consumed.
Test compounds of the formula I are first dissolved in DMSO at a concentration of 1-10 mM (stock solution) and then further diluted with water/3% DMSO as required so that the final DMSO concentration in the assay is 1%.
The assay components are mixed in the following order: • 10 μl 3×compound (in 3% DMSO) • 10 μl 3×assay mix (MgCl2/MnCl2/ATP/^33P-ATP/poly(EY)) • 10 μl 3×enzyme dilution
Assays are incubated for 15 min (in special cases up to 60 min) at ambient temperature, reactions terminated by addition of 10 μl 0.25 M EDTA pH 7, then 20 μl transferred to a Millipore Immobilon^P membrane (previously soaked for 5 min with methanol, rinsed with water, then soaked for 5 min with 0.5% H3PO4 and mounted on vacuum manifold) with disconnected vacuum source. After spotting all samples, vacuum is connected and each well rinsed with 200 μl 0.5% H3PO4. Membranes are removed and washed 4× on shaker with 0.5% H3PO4, once with methanol. Membranes are counted after drying at ambient temperature, mounting in Packard TopCount 96-well frame, and addition of 10 μl/well of the scintillator Microscint™ (Packard).
IC50 values are calculated by logarithmic regression analysis of the percentage inhibition of each compound at 4 concentrations (usually 3- or 10-fold dilution series starting at 10 μM). In each experiment, the actual inhibition by reference compound is used for normalization of IC50 values to the basis of an average value of the reference inhibitor: Normalized IC50=measured IC50·average ref. IC50/measured ref. IC50 Example: • Reference inhibitor in experiment 0.4 μM, average 0.3 μM • Test compound in experiment 1.0 μM, normalization: 1.0·0.3/0.4=0.75 μM
For example, staurosporine or a synthetic staurosporine derivative are used as reference compounds.
In the case of `O=c1n(-c2cccc(Cl)c2)c2cnc3ccc(Br)cc3c2n1-c1ccccc1Cl` [Example 102, 8-Bromo-1-(2-chloro-phenyl)-3-(3-chloro-phenyl)-1,3-dihydro-imidazo[4,5-c]quinolin-2-one], the IC50 is reported as 1000 to 2000 nM.
With `N/C(Cc1nc2cnc3ccc(Cl)cc3c2n1-c1ccccc1Cl)=N/O` [Example 87, 2-[8-Chloro-1-(2-chloro-phenyl)-1H-imidazo[4,5-c]quinolin-2-yl]-N-hydroxy-acetamidine] the IC50 was 500 to 1000 nM.
Work on `N#Cc1nc2cnc3ccc(Cl)cc3c2n1-c1ccccc1Cl` [Example 84, 8-Chloro-1-(2-chloro-phenyl)-1H-imidazo[4,5-c]quinoline-2-carbonitrile] yielded an IC50 of at most 500 nM.
`O=c1n(Cc2ccoc2)c2cnc3ccc(Cl)cc3c2n1-c1ccccc1Cl` [Example 133, 8-Chloro-1-(2-chloro-phenyl)-3-(3-furyl-methyl)-1,3-dihydro-imidazo[4,5-c]quinolin-2-one] gave an IC50 of at most 500 nM.
With `Clc1ccc2ncc3ncn(-c4ccccc4Cl)c3c2c1` [Example 25, 8-Chloro-1-(2-chloro-phenyl)-1H-imidazo[4,5-c]quinoline] the IC50 was at most 500 nM.
Compound `N=C(N)Cc1nc2cnc3ccc(Cl)cc3c2n1-c1ccccc1Cl` [Example 88, 2-[8-Chloro-1-(2-chloro-phenyl)-1H-imidazo[4,5-c]quinolin-2-yl]-acetamidine] has an IC50 of at most 500 nM.
In the case of `O=c1[nH]c2cnc3ccc(Cl)cc3c2n1-c1ccccc1Cl` [Example 92, 8-Chloro-1-(2-chloro-phenyl)-1,3-dihydro-imidazo[4,5-c]quinolin-2-one], the IC50 is reported as 500 to 1000 nM.

System: not given
Assay: not given
Details: not given
`Fc1ccc(-n2cnc3cnc4ccccc4c32)cc1` [Example 1, 1-(4-Fluoro-phenyl)-1H-imidazo[4,5-c]quinoline] showed a melting point of 161 to 162 °C.
`N/C(Cc1nc2cnc3ccc(Cl)cc3c2n1-c1ccccc1Cl)=N/O` (as salt: sodium) [Example 87, 2-[8-Chloro-1-(2-chloro-phenyl)-1H-imidazo[4,5-c]quinolin-2-yl]-N-hydroxy-acetamidine] showed a melting point of 114 °C.
Work on `COc1ccc2ncc3ncn(-c4ccccc4Cl)c3c2c1` [Example 44, 1-(2-Chloro-phenyl)-8-methoxy-1H-imidazo[4,5-c]quinoline] yielded a melting point of 202 to 205 °C.
For `Brc1ccccc1-n1cnc2cnc3ccc(-c4ccccc4)cc3c21` [Example 53, 1-(2-Bromo-phenyl)-8-Phenyl-1H-imidazo[4,5-c]quinoline], the melting point was 128 to 129 °C.
Work on `Cc1nc2cnc3ccc(Cl)cc3c2n1-c1ccccc1Cl` [Example 136, 8-Chloro-1-(2-chloro-phenyl)-2-methyl-1H-imidazo[4,5-c]quinoline] yielded a melting point of 177.5 °C.
Work on `CCc1ccc2ncc3ncn(-c4ccccc4Cl)c3c2c1` [Example 49, 1-(2-Chloro-phenyl)-ethyl-1H-imidazo[4,5-c]quinoline] yielded a melting point of 156 to 158 °C.
`N#Cc1nc2cnc3ccc(Cl)cc3c2n1-c1ccccc1Cl` [Example 84, 8-Chloro-1-(2-chloro-phenyl)-1H-imidazo[4,5-c]quinoline-2-carbonitrile] showed a melting point of 242 to 244 °C.
For `Nc1nc2ccc(Cl)cc2c2c1ncn2-c1ccccc1Cl` [Example 73, 8-Chloro-1-(2-chloro-phenyl)-1H-imidazo[4,5c]-quinolin-4-ylamine], the melting point was 262 to 263 °C.
In the case of `N#Cc1nc2ccc(Cl)cc2c2c1ncn2-c1ccccc1Cl` [Example 74, 8-Chloro-1-(2-chloro-phenyl)-1H-imidazo[4,5-c]quinoline-4-carbonitrile], the melting point is reported as 248 to 250 °C.
With `Fc1ccc2ncc3ncn(-c4ccccc4F)c3c2c1` [Example 19, 8-Fluoro-1-(2-fluoro-phenyl)-1H-imidazo[4,5-c]quinoline] the melting point was 162 to 163 °C.
With `N/C(=N\O)c1ccccc1-n1cnc2cnc3ccc(-c4ccccc4)cc3c21` [Example 67, N-Hydroxy-2-(8-phenyl-imidazo[4,5-c]quinolin-1-yl)-benzamidine] the melting point was 249 to 251 °C.
`N/C(=N\O)c1nc2cnc3ccc(Cl)cc3c2n1-c1ccccc1Cl` [Example 86, 8-Chloro-1-(2-chloro-phenyl)-N-hydroxy-1H-imidazo[4,5-c]quinoline-2-carboxamidine] gave a melting point of 265 to 267 °C.
With `NC(=O)c1nc2cnc3ccc(Cl)cc3c2n1-c1ccccc1Cl` [Example 83, 8-Chloro-1-(2-chloro-phenyl)-1H-imidazo[4,5-c]quinoline-2-carboxylic acid amide] the melting point was 194 to 195 °C.
With `N=C(N)Cc1ccccc1-n1cnc2cnc3ccc(-c4ccccc4)cc3c21` [Example 70, 2-[2-(8-Phenyl-imidazo[4,5-c]quinolin-1-yl)-phenyl]-acetamidine] the melting point was 261 to 263 °C.
In the case of `N=C(N)c1ccccc1-n1cnc2cnc3ccc(-c4ccccc4)cc3c21` [Example 69, 2-(8-Phenyl-imidazo-4,5-quinolin-1-yl)-benzamidine], the melting point is reported as 284 to 285 °C.
For `[O-][n+]1cc2ncn(-c3ccccc3Cl)c2c2cc(Cl)ccc21` [Example 71, 8-Chloro-1-(2-chloro-phenyl)-1H-imidazo[4,5-c]quinoline 5-oxide], the melting point was 247 to 250 °C.
For `NCc1cccc(-n2cnc3cnc4ccc(Cl)cc4c32)c1` [Example 42, 3-(8-Chloro-imidazo[4,5-c]quinolin-1-yl)-benzylamine], the melting point was 148 to 149 °C.
With `Clc1ccc2ncc3ncn(-c4ccccc4)c3c2c1` [Example 23, 8-Chloro-1-phenyl-1H-imidazo[4,5-c]quinoline] the melting point was 240 to 242 °C.
With `Clc1ccc2nc(Cl)c3ncn(-c4ccccc4Cl)c3c2c1` [Example 75, 4,8-Dichloro-1-(2-chloro-phenyl)-1H-imidazo[4,5-c]quinoline] the melting point was 194 to 200 °C.
Work on `CNc1nc2ccc(Cl)cc2c2c1ncn2-c1ccccc1Cl` [Example 76, [8-Chloro-1-(2-chloro-phenyl)-1H-imidazo[4,5-c]quinolin-4-yl]-methyl-amine] yielded a melting point of 210 to 212 °C.
Compound `N/C(Cc1ccccc1-n1cnc2cnc3ccc(-c4ccccc4)cc3c21)=N/O` [Example 68, N-Hydroxy-2-[2-(8-phenyl-imidazo[4,5-c]quinolin-1-yl)-phenyl]-acetamidine] has a melting point of 253 to 254 °C.
Work on `Clc1ccc2ncc3nc(Br)n(-c4ccccc4Cl)c3c2c1` [Example 82, 2-Bromo-8-chloro-1-(2-chloro-phenyl)-1H-imidazo[4,5-c]quinoline] yielded a melting point of 183 to 192 °C.
Work on `Fc1ccc(-n2cnc3cnc4cc(Cl)ccc4c32)cc1` [Example 15, 7-Chloro-1-(4-fluoro-phenyl)-1H-imidazo[4,5-c]quinoline] yielded a melting point of 273 to 274 °C.
Work on `NCCc1ccc(-n2cnc3cnc4ccc(Cl)cc4c32)cc1` [Example 43, 2-[4-(8-Chloro-imidazo[4,5-c]quinolin-1-yl)-phenyl]-ethylamine] yielded a melting point of 140 to 141 °C.
Compound `O=C(Nc1nc2ccc(Cl)cc2c2c1ncn2-c1ccccc1Cl)c1ccccc1` [Example 72, N-[8-Chloro-1-(2-chloro-phenyl)-1H-imidazo[4,5-c]quinolin-4-yl]-benzamide] has a melting point of 255 to 258 °C.
